In series [1] the target is T1, Monoamine oxidase A (Homo sapiens, UniProt P21397).
T1 sequence (P21397 whole entry): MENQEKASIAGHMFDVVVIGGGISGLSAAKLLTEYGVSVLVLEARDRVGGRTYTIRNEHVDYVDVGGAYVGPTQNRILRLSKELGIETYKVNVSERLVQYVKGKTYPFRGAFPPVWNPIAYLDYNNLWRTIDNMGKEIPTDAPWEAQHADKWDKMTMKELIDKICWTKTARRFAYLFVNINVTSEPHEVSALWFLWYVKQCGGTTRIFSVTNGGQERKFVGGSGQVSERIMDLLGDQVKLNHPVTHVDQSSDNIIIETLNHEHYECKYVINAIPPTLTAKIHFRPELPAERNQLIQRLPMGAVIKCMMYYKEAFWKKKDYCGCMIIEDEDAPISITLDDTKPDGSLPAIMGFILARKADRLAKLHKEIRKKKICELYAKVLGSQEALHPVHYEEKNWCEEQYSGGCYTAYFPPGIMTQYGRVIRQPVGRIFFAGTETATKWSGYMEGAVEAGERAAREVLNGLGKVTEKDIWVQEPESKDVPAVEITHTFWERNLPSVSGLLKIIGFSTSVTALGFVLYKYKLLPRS
The experiment in a line: Inhibitory potency against Monoamine oxidase A at 10 uM.

Series [2] concerns the target T2, Amine oxidase [flavin-containing] B (Homo sapiens, UniProt P27338).
T2 sequence (P27338 whole entry): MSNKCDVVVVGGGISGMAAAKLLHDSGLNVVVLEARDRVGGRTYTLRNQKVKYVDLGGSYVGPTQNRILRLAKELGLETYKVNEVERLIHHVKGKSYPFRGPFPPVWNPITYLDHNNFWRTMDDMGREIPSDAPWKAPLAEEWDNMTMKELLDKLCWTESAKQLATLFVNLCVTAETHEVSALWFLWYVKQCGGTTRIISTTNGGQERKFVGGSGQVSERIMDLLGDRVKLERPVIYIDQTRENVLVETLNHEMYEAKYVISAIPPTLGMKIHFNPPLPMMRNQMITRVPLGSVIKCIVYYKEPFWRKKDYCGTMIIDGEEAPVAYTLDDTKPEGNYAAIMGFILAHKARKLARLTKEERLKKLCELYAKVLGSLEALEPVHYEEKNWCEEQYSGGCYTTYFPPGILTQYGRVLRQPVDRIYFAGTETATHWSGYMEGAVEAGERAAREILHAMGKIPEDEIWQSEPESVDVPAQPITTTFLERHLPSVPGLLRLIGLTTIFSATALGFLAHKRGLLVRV
The series is described as follows: Inhibitory potency against Monoamine oxidase B.

The target of series [3] is T3, Amine oxidase [flavin-containing] A (Homo sapiens, UniProt P21397).
T3 sequence (P21397 whole entry): T1 sequence (P21397 whole entry)
The series is described as follows: Inhibitory potency against Monoamine oxidase A.

In series [4] the target is T1, Monoamine oxidase A. The series is described as follows: Inhibitory potency against Monoamine oxidase A at 3 uM.

We go through eight compounds from ChEMBL document CHEMBL1135004, “Natural and synthetic geiparvarins are strong and selective MAO-B inhibitors. Synthesis and SAR studies” (Bioorg Med Chem Lett, 2002).

pIC50: −log10 of the molar value.

One may read the inhibition as how much of the control response was suppressed. Lower therefore signals a weak effect. The pIC50 is −log10 of the IC50, conventionally taken in molar units. On to `CC(=O)/C=C/C=C/COc1ccc2ccc(=O)oc2c1`, for which, on Monoamine oxidase A [1], 10 µM produced 26% inhibition. In series [2], the pIC50 was 5.77.
In the case of `Cc1c(C)c2ccc(OC/C=C/C3=CC(=O)C(C)(C)O3)cc2oc1=O`, the pIC50 was 4.95 in series [3] and 6.20 in series [2].
`C/C(=C\COc1ccc2c(C)c(C)c(=O)oc2c1)C1=CC(=O)C(C)(C)O1` returned an inhibition at 10 µM against Monoamine oxidase A [1] of 37%. In addition, the negative logarithm of the IC50 (pIC50) in series [2] was 6.89.
`Cc1cc(=O)oc2cc(OC/C=C/C3=CC(=O)C(C)(C)O3)ccc12` gave an inhibition at 10 µM against Monoamine oxidase A [1] of 27%. This compound had a negative logarithm of the IC50 (pIC50) in series [2] of 6.77.
`Cc1cc2ccc(OC/C=C/C3=CC(=O)C(C)(C)O3)cc2oc1=O`: the pIC50 is 4.82 in series [3] and 6.23 in series [2].
`CC1(c2ccccc2)OC(/C=C/COc2ccc3ccc(=O)oc3c2)=CC1=O` (stereo unspecified): on Monoamine oxidase A [4], testing at 3 µM gave an inhibition of 0%. In series [2], this compound had a pIC50 of 5.82.
Consider `CC1(C)OC(/C=C/COc2ccc3ccc(=O)oc3c2)=CC1=O`, for which the negative-log IC50 (pIC50) in series [3] is 4.62; in series [2], 7.55.
For `C/C(=C\COc1ccc2ccc(=O)oc2c1)C1=CC(=O)C(C)(C)O1` [GEIPARVARIN], the pIC50 in series [3] was 4.57; in series [2] it was 6.84.
